Experimental data reported in PMC11714206, “Massively Parallel Screening of Toll/Interleukin‐1 Receptor (TIR)‐Derived Peptides Reveals Multiple Toll‐Like Receptors (TLRs)‐Targeting Immunomodulatory Peptides” (Advanced Science, 2024).
Where “and” joins values, the source holds several entries; their conditions need not be identical. Identical values can stand only once. Blank lines part the entries; values can stand above or below the sequence they belong to.

Target: T1, MyD88^TIR (Homo sapiens, UniProt Q99836)
T1 construct: MyD88 (residues 148–296); 6xHis; made in house; host or cells: E. coli BL21 (DE3)
Test: T‐Surf phage library (P8 and P3) selection against MyD88^TIR, four rounds, NGS read counts
Assay type: binding
Conditions: for P3_MyD88 Rank (after) / P3_MyD88 Rank (before): P3 library; for P8_MyD88 Rank (after) / P8_MyD88 Rank (before): P8 library; for Population: 4th round of selection against MyD88 TIR, share of NGS reads
In short: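 Library of 190 946 TIR‐derived peptides on P8 or P3 was panned on immobilized TIR domain coated at 5 µg mL^−1, BSA‐blocked, 1 h binding at RT, PBS/0.5% Tween‐20 washes, HCl elution, TG1 amplification. Fourth‐round pools were PCR‐barcoded, sequenced (100 bp paired‐end, Phred ≥30), and peptides ranked by read counts.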

[1] = selection against MyD88 TIR, rank by count after grouping
[2] = selection against MyD88 TIR, rank by count before grouping
[3] = P8_MyD88: rank by count after grouping
[4] = P8_MyD88: rank by count before grouping
[5] = P8_MyD88: rank by NGS read count after grouping
[6] = P8_MyD88: rank by NGS read count before grouping
[7] = selection against MyD88, rank by count after grouping
[8] = selection against MyD88, rank by count before grouping
[9] = P3_MyD88: rank by count after grouping
[10] = P3_MyD88: rank by count before grouping
[11] = 4R selection against MyD88, rank after grouping
[12] = 4R selection against MyD88, rank before grouping
[13] = P3_MyD88 pool: P3 T-Surf phage library
[14] = selection against MyD88, rank after grouping
[15] = selection against MyD88, rank before grouping
[16] = P8_MyD88 pool: P8 T-Surf phage library

T1 sequence (Q99836 148-296): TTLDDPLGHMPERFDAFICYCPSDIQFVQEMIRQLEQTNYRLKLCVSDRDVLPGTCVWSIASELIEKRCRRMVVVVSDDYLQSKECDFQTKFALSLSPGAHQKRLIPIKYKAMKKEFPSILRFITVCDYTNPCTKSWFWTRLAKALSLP

Sequence: DPHDLDWFYERLVSLL
Rank (after) [3]: 143
Rank (before) [4]: 1072

Sequence: DPQDLVWFYERPVSIF
Rank (after) [5]: 909
Rank (before) [6]: 2712

Sequence: DIQWALQKLMQIMEAF
P8_MyD88 Rank (after) [7]: 676
P8_MyD88 Rank (before) [8]: 3070

Sequence: DVVCDYLLPNLEGPAG
P8_MyD88 Rank (after) [11]: 606
P8_MyD88 Rank (before) [12]: 2555

Sequence: PQDLGWYYERLVSLIL
Rank (after) [5]: 888
Rank (before) [6]: 3421

Sequence: DPQVLERKYERLVKLV
P8_MyD88 Rank (after) [7]: 718
P8_MyD88 Rank (before) [8]: 2650

Sequence: YTALPNSGFHTIRDNE
P3_MyD88 Rank (after) [14]: 552
P3_MyD88 Rank (before) [15]: 1712

Sequence: YASYDDFWDRLIRMIE
P8_MyD88 Rank (after) [1]: 248
P8_MyD88 Rank (before) [2]: 439

Sequence: DFLSHLIKRLAVCTS
Rank (after) [5]: 896
Rank (before) [6]: 2347

Sequence: DWVWDYLLPNGRPSG
Rank (after) [5]: 987
Rank (before) [6]: 2420

Sequence: DPQDLDWFYERLVNLL
Rank (after) [3]: 98
Rank (before) [4]: 349

Sequence: DPPDLDWCYQRLVNLP
Rank (after) [5]: 1026
Rank (before) [6]: 2628

Sequence: NQWRNALTAAANLSGC
Population [13]: 0.00291%

Sequence: DWVWDYLLLSVFQTIFARRTE
Rank (after) [3]: 425
Rank (before) [4]: 1033

Sequence: LKVESWHQAREKAGKL
Rank (after) [9]: 400
Rank (before) [10]: 2518

Sequence: EWIREQLRPALKERMT
P3_MyD88 Rank (after) [11]: 619
P3_MyD88 Rank (before) [12]: 2151

Sequence: NQWRNALTAAANLSGEFG
P3_MyD88 Rank (after) [11]: 604
P3_MyD88 Rank (before) [12]: 3505

Sequence: DWAWDYLLPNLEGSAG
Rank (after) [3]: 432
Rank (before) [4]: 2483

Sequence: EIARQLLSEYLNIAVY
Rank (after) [3]: 131
Rank (before) [4]: 142
Population [16]: 0.0116%

Sequence: DWLPGRTLFENLWASV
Rank (after) [3]: 152
Rank (before) [4]: 164
Population [16]: 0.00886%

Sequence: LSRVPSVHDFRGLMSI
Rank (after) [9]: 416
Rank (before) [10]: 2389

Sequence: YYLDPSHLRKHSGEIG
P3_MyD88 Rank (after) [14]: 558
P3_MyD88 Rank (before) [15]: 1464

Sequence: DPQDLDWLYERLVSLF
Population [16]: 0.00617%

Sequence: SSFREGLWRLLELSKK
Population [13]: 0.00466% and 0.00437% and 0.00408% and 0.00378% and 0.00349% and 0.0032% and 0.00291%

Sequence: SSFREALWRLLELSKN
Rank (after) [9]: 167
Rank (before) [10]: 3222

Sequence: LKVEGWRRALEKAGNL
Rank (after) [9]: 467
Rank (before) [10]: 2470

Next, values leading:

P3_MyD88 Rank (after) [1]: 206
P3_MyD88 Rank (before) [2]: 1688
Sequence: YTALTNSGVHTFLDND

Rank (after) [9]: 394
Rank (before) [10]: 3156
Sequence: SSFREGLWCLRELSKK

P8_MyD88 Rank (after) [11]: 613
P8_MyD88 Rank (before) [12]: 1571
Sequence: WDFSGNMKQALDRLCY

Rank (after) [5]: 890
Rank (before) [6]: 1596
Sequence: WDFASNMAQVWERLYY

P8_MyD88 Rank (after) [11]: 608
P8_MyD88 Rank (before) [12]: 1468
Sequence: WALDELLTILYAKETM

Population [13]: 0.00495%
Sequence: NDLVHVWSSKANSLVG

P3_MyD88 Rank (after) [7]: 735
P3_MyD88 Rank (before) [8]: 1853
Sequence: GRYEELFMTETDERLP

P3_MyD88 Rank (after) [7]: 734
P3_MyD88 Rank (before) [8]: 1991
Sequence: DHLDPSHLRKQSGEFG

P3_MyD88 Rank (after) [1]: 200
P3_MyD88 Rank (before) [2]: 2046
Sequence: DHHLDLPRGKALKPEMLG

Rank (after) [9]: 125
Rank (before) [10]: 1530
Sequence: YAFTGHLHSYLVQRSV

P8_MyD88 Rank (after) [11]: 635
P8_MyD88 Rank (before) [12]: 3374
Sequence: LEANDSLFWDRLIRMIE

P8_MyD88 Rank (after) [14]: 490
P8_MyD88 Rank (before) [15]: 1403
Sequence: WALVVLLQILHARELF

P8_MyD88 Rank (after) [11]: 651
P8_MyD88 Rank (before) [12]: 3652
Sequence: IQCRNATSPAALLIGR

Rank (after) [3]: 417
Rank (before) [4]: 1009
Sequence: VQWDDPWFWDKLAYA

P3_MyD88 Rank (after) [1]: 253
P3_MyD88 Rank (before) [2]: 1702
Sequence: YTALNHSGFHTFRDND

P8_MyD88 Rank (after) [11]: 656
P8_MyD88 Rank (before) [12]: 1656
Sequence: WTLNELQTILNILDIG

Rank (after) [9]: 449
Rank (before) [10]: 2551
Sequence: RFWERLRPALKERLP

Rank (after) [5]: 944
Rank (before) [6]: 3764
Sequence: SPLSYMWLDELVEIME

Rank (after) [9]: 462
Rank (before) [10]: 1433
Sequence: YSFTGQLHLYLIHRGV

Rank (after) [5]: 908
Rank (before) [6]: 2280
Sequence: GALDEVRKILYANETM

Population [16]: 0.01%
Sequence: WALDELLRILY

Rank (after) [9]: 117
Rank (before) [10]: 2469
Sequence: LKVDSWRQALEKAGNL

Rank (after) [9]: 388
Rank (before) [10]: 2178
Sequence: EWIRTAASGAERTSA

Rank (after) [5]: 949
Rank (before) [6]: 1406
Sequence: WALVKLLKILYANDTM
